Literature values in US20100063116A1 (priority 2006, published 2010).
Like-named read-outs stand apart in the source and are kept apart here.

Legend:
[1] = system: patients with early Parkinson's disease
[2] = system: D2 subfamily of dopamine receptors; conditions: in vitro
[3] = system: dopamine receptors in the striatum and the substantia nigra; conditions: electrophysiologic studies in animals
[4] = system: patients with early Parkinson's disease; remark: listed apart in the source
[5] = end of 6-month maintenance, titrated up to 4.5 mg/day in three divided doses

volume of distribution (CV=20%): about 500 L | renal clearance (CV=25%): approximately 400 mL/min | dose recovered in urine (almost all as unchanged drug): 90% | clearance in dialysis patients (dialysis patients): extremely low | terminal half-life (elderly volunteers): about 12 hours | metabolites in plasma or urine (human, in vivo): no metabolites have been identified | pharmacokinetics in early versus advanced Parkinson's disease patients (human, in vivo): comparable | decrease of clearance compared with healthy volunteers (moderate renal impairment (creatinine clearance approximately 40 mL/min)): about 60% | time to steady-state concentrations (of dosing): ≤ 2 days | absolute bioavailability (oral): greater than 90% | linearity of pharmacokinetics (over the clinical dosage range): linear pharmacokinetics | decrease of clearance compared with healthy volunteers (severe renal impairment (creatinine clearance approximately 20 mL/min)): about 75% | effect of food on the extent of absorption (taken with food): does not affect | terminal half-life (young healthy volunteers): about 8 hours | bound to plasma proteins (plasma proteins): about 15% | intrinsic activity at the D2 subfamily of dopamine receptors [2]: full intrinsic activity
SMILES: CCCN[C@@H]1CCc2nc(N)sc2C1 [Pramipexole, pramipexole]
mean improvement from baseline on the UPDRS part II (ADL) total score [1, 5]: 1.9 | mean improvement from baseline on the UPDRS part III total score [1, 5]: 5.0 | beginning of statistically significant difference versus placebo, UPDRS part II ([1]; maximum dose 0.75 mg/day): 2 week | beginning of statistically significant difference versus placebo, UPDRS part III ([1]; maximum dose 1.5 mg/day): 3 week | effect on striatal neuronal firing rates [3]: influences striatal neuronal firing rates | dose-response relationship ([4]; 1.5 mg, 3.0 mg, 4.5 mg, or 6.0 mg per day): No dose-response relationship was demonstrated | mean improvement from baseline on the UPDRS part III total score ([4]; end of 4-week maintenance, fixed doses 1.5-6.0 mg per day): 4.2 | mean improvement from baseline on the UPDRS part II total score ([4]; end of 4-week maintenance, fixed doses 1.5-6.0 mg per day, regardless of dose group): 1.8 | benefit of 3 mg, 4.5 mg and 6 mg per day beyond 1.5 mg/day ([4]; fixed-dose study in early Parkinson's disease patients): not shown to provide any significant benefit
